Where two headings read alike, the source gives them in different places.
How the values were obtained:
human plasma protein = details: cited from earlier work
E. coli ESBL− = assay: In vitro MIC, 2010 surveillance isolates; assay type: cell-based, Escherichia coli
E. coli ESBL+ = assay: In vitro MIC, 2010 surveillance isolates; assay type: cell-based, Escherichia coli
K. pneumoniae ESBL− = assay: In vitro MIC, 2010 surveillance isolates; assay type: cell-based, Klebsiella pneumoniae
K. pneumoniae ESBL+ = assay: In vitro MIC, 2010 surveillance isolates; assay type: cell-based, Klebsiella pneumoniae
K. oxytoca = assay: In vitro MIC, 2010 surveillance isolates; assay type: cell-based
E. cloacae CeftazS = assay: In vitro MIC, 2010 surveillance isolates; assay type: cell-based
E. cloacae CeftazR = assay: In vitro MIC, 2010 surveillance isolates; assay type: cell-based
Enterobacter spp = assay: In vitro MIC, 2010 surveillance isolates; assay type: cell-based
A. baumanii = assay: In vitro MIC, 2010 surveillance isolates; assay type: cell-based; details: for % R (resistance): CLSI breakpoints
Acinetobacter spp = assay: In vitro MIC, 2010 surveillance isolates; assay type: cell-based; details: for % R (resistance): CLSI breakpoints
MSSA = assay: In vitro MIC, 2010 surveillance isolates; assay type: cell-based
MRSA = assay: In vitro MIC, 2010 surveillance isolates; assay type: cell-based
MS CoNS = assay: In vitro MIC, 2010 surveillance isolates; assay type: cell-based, Coagulase-Negative Staphylococcus
MR CoNS = assay: In vitro MIC, 2010 surveillance isolates; assay type: cell-based, Coagulase-Negative Staphylococcus
E. faecalis VS = assay: In vitro MIC, 2010 surveillance isolates; assay type: cell-based
E. faecalis VNS = assay: In vitro MIC, 2010 surveillance isolates; assay type: cell-based
E. faecium VS = assay: In vitro MIC, 2010 surveillance isolates; assay type: cell-based
E. faecium VNS = assay: In vitro MIC, 2010 surveillance isolates; assay type: cell-based

Compound: CCCCCCCCCC(=O)N[C@@H](Cc1c[nH]c2ccccc12)C(=O)N[C@H](CC(N)=O)C(=O)N[C@@H](CC(=O)O)C(=O)N[C@@H]1C(=O)NCC(=O)N[C@@H](CCCN)C(=O)N[C@@H](CC(=O)O)C(=O)N[C@H](C)C(=O)N[C@@H](CC(=O)O)C(=O)NCC(=O)N[C@H](CO)C(=O)N[C@@H]([C@H](C)CC(=O)O)C(=O)N[C@@H](CC(=O)c2ccccc2N)C(=O)O[C@@H]1C [Daptomycin]
- protein bound in human plasma (human plasma protein): > 75%

Compound: CC(=O)NC[C@H]1CN(c2ccc(N3CCOCC3)c(F)c2)C(=O)O1 [Linezolid]
- protein bound in human plasma (human plasma protein; human, plasma): 31%

Compound: CN(C)c1ccc(O)c2c1C[C@H]1C[C@H]3[C@H](N(C)C)C(O)=C(C(N)=O)C(=O)[C@@]3(O)C(O)=C1C2=O [Minocycline]
- human plasma protein binding, Mean (human plasma protein; human, plasma): 76%

Compound: Nc1nc(-n2cc(C(=O)O)c(=O)c3cc(F)c(N4CC(O)C4)c(Cl)c32)c(F)cc1F [delafloxacin]
- protein bound in human plasma (human plasma protein): > 75%

Compound: Cn1nnc(-c2ccc(-c3ccc(N4C[C@H](CO)OC4=O)cc3F)cn2)n1 [tedizolid]
- protein bound in human plasma (human plasma protein): > 75%

Compound: piperacillin-tazobactam [Pip/tazo]
- % R (resistance) (E. coli ESBL−; Asia/Pac, Eucast breakpoints): 2.5%
- MIC90 (E. coli ESBL−; Asia/Pac, N=282): 4 µg/mL
- % R (resistance) (E. coli ESBL−; Europe, Eucast breakpoints): 5.3%
- MIC90 (E. coli ESBL−; Europe, N=1533): 4 µg/mL
- % R (resistance) (E. coli ESBL−; L. Amer, CLSI breakpoints): 1.5%
- MIC90 (E. coli ESBL−; L. Amer, N=389): 4 µg/mL
- % R (resistance) (E. coli ESBL−; N America, CLSI breakpoints): 0.9%
- MIC90 (E. coli ESBL−; N America, N=1172): 4 µg/mL
- % R (resistance) (E. coli ESBL+; Asia/Pac, Eucast breakpoints): 7.3%
- MIC90 (E. coli ESBL+; Asia/Pac, N=219): 16 µg/mL
- % R (resistance) (E. coli ESBL+; Europe, Eucast breakpoints): 24.1%
- MIC90 (E. coli ESBL+; Europe, N=274): > 64 µg/mL
- % R (resistance) (E. coli ESBL+; L. Amer, CLSI breakpoints): 7.7%
- MIC90 (E. coli ESBL+; L. Amer, N=168): 64 µg/mL
- % R (resistance) (E. coli ESBL+; N America, CLSI breakpoints): 6%
- MIC90 (E. coli ESBL+; N America, N=134): 64 µg/mL
- % R (resistance) (K. pneumoniae ESBL−; Asia/Pac, Eucast breakpoints): 2.1%
- MIC90 (K. pneumoniae ESBL−; Asia/Pac, N=189): 8 µg/mL
- % R (resistance) (K. pneumoniae ESBL−; Europe, Eucast breakpoints): 0%
- MIC90 (K. pneumoniae ESBL−; Europe, N=361): 8 µg/mL
- % R (resistance) (K. pneumoniae ESBL−; L. Amer, CLSI breakpoints): 1.9%
- MIC90 (K. pneumoniae ESBL−; L. Amer, N=160): 4 µg/mL
- % R (resistance) (K. pneumoniae ESBL−; N America, CLSI breakpoints): 0.7%
- MIC90 (K. pneumoniae ESBL−; N America, N=671): 8 µg/mL
- % R (resistance) (K. pneumoniae ESBL+; Asia/Pac, Eucast breakpoints): 47.6%
- MIC90 (K. pneumoniae ESBL+; Asia/Pac, N=124): > 64 µg/mL
- % R (resistance) (K. pneumoniae ESBL+; Europe, Eucast breakpoints): 57%
- MIC90 (K. pneumoniae ESBL+; Europe, N=151): > 64 µg/mL
- % R (resistance) (K. pneumoniae ESBL+; L. Amer, CLSI breakpoints): 51.7%
- MIC90 (K. pneumoniae ESBL+; L. Amer, N=209): > 64 µg/mL
- % R (resistance) (K. pneumoniae ESBL+; N America, CLSI breakpoints): 51.9%
- MIC90 (K. pneumoniae ESBL+; N America, N=108): > 64 µg/mL
- % R (resistance) (K. oxytoca; Asia/Pac, Eucast breakpoints): 17.6%
- MIC90 (K. oxytoca; Asia/Pac, N=17): 64 µg/mL
- % R (resistance) (K. oxytoca; Europe, Eucast breakpoints): 13.3%
- MIC90 (K. oxytoca; Europe, N=158): > 64 µg/mL
- % R (resistance) (K. oxytoca; L. Amer, CLSI breakpoints): 16%
- MIC90 (K. oxytoca; L. Amer, N=25): > 64 µg/mL
- % R (resistance) (K. oxytoca; N America, CLSI breakpoints): 7.9%
- MIC90 (K. oxytoca; N America, N=177): 16 µg/mL
- % R (resistance) (E. cloacae CeftazS; Asia/Pac, Eucast breakpoints): 1%
- MIC90 (E. cloacae CeftazS; Asia/Pac, N=100): 4 µg/mL
- % R (resistance) (E. cloacae CeftazS; Europe, Eucast breakpoints): 1.1%
- MIC90 (E. cloacae CeftazS; Europe, N=183): 4 µg/mL
- % R (resistance) (E. cloacae CeftazS; L. Amer, CLSI breakpoints): 3.5%
- MIC90 (E. cloacae CeftazS; L. Amer, N=57): 16 µg/mL
- % R (resistance) (E. cloacae CeftazS; N America, CLSI breakpoints): 0.5%
- MIC90 (E. cloacae CeftazS; N America, N=210): 4 µg/mL
- % R (resistance) (E. cloacae CeftazR; Asia/Pac, Eucast breakpoints): 55.6%
- MIC90 (E. cloacae CeftazR; Asia/Pac, N=63): > 64 µg/mL
- % R (resistance) (E. cloacae CeftazR; Europe, Eucast breakpoints): 62.5%
- MIC90 (E. cloacae CeftazR; Europe, N=72): > 64 µg/mL
- % R (resistance) (E. cloacae CeftazR; L. Amer, CLSI breakpoints): 23.8%
- MIC90 (E. cloacae CeftazR; L. Amer, N=42): > 64 µg/mL
- % R (resistance) (E. cloacae CeftazR; N America, CLSI breakpoints): 48.1%
- MIC90 (E. cloacae CeftazR; N America, N=77): > 64 µg/mL
- % R (resistance) (Enterobacter spp; Asia/Pac, Eucast breakpoints): 19.2%
- MIC90 (Enterobacter spp; Asia/Pac, N=52): 32 µg/mL
- % R (resistance) (Enterobacter spp; Europe, Eucast breakpoints): 32.9%
- MIC90 (Enterobacter spp; Europe, N=82): 64 µg/mL
- % R (resistance) (Enterobacter spp; L. Amer, CLSI breakpoints): 7.1%
- MIC90 (Enterobacter spp; L. Amer, N=42): 64 µg/mL
- % R (resistance) (Enterobacter spp; N America, CLSI breakpoints): 4%
- MIC90 (Enterobacter spp; N America, N=101): 64 µg/mL
- MIC90 (A. baumanii; Asia/Pac, N=275): > 64 µg/mL
- MIC90 (A. baumanii; Europe, N=145): > 64 µg/mL
- % R (resistance) (A. baumanii; L. Amer): 88.7%
- MIC90 (A. baumanii; L. Amer, N=275): > 64 µg/mL
- % R (resistance) (A. baumanii; N America): 70.1%
- MIC90 (A. baumanii; N America, N=154): > 64 µg/mL
- MIC90 (Acinetobacter spp; Europe, N=43): > 64 µg/mL
- % R (resistance) (Acinetobacter spp; L. Amer): 55.6%
- % R (resistance) (Acinetobacter spp; N America): 19%
- MIC90 (Acinetobacter spp; N America, N=42): > 64 µg/mL
- % R (resistance) (MSSA; Asia/Pac, Eucast breakpoints): 0%
- MIC90 (MSSA; Asia/Pac, N=641): 2 µg/mL
- % R (resistance) (MSSA; Europe, Eucast breakpoints): 0%
- MIC90 (MSSA; Europe, N=2109): 2 µg/mL
- % R (resistance) (MSSA; L. Amer, CLSI breakpoints): 0.2%
- MIC90 (MSSA; L. Amer, N=590): 2 µg/mL
- % R (resistance) (MSSA; N America, CLSI breakpoints): 0.1%
- MIC90 (MSSA; N America, N=2373): 2 µg/mL
- % R (resistance) (MRSA; Asia/Pac, Eucast breakpoints): 100%
- MIC90 (MRSA; Asia/Pac, N=428): > 64 µg/mL
- % R (resistance) (MRSA; Europe, Eucast breakpoints): 100%
- MIC90 (MRSA; Europe, N=750): > 64 µg/mL
- % R (resistance) (MRSA; L. Amer, CLSI breakpoints): 100%
- MIC90 (MRSA; L. Amer, N=506): > 64 µg/mL
- % R (resistance) (MRSA; N America, CLSI breakpoints): 100%
- MIC90 (MRSA; N America, N=2508): 64 µg/mL
- % R (resistance) (MS CoNS; Asia/Pac, Eucast breakpoints): 0%
- MIC90 (MS CoNS; Asia/Pac, N=18): 1 µg/mL
- % R (resistance) (MS CoNS; Europe, Eucast breakpoints): 0%
- MIC90 (MS CoNS; Europe, N=185): ≤ 0.5 µg/mL
- % R (resistance) (MS CoNS; L. Amer, CLSI breakpoints): 0%
- MIC90 (MS CoNS; L. Amer, N=67): 1 µg/mL
- % R (resistance) (MS CoNS; N America, CLSI breakpoints): 0%
- MIC90 (MS CoNS; N America, N=191): ≤ 0.5 µg/mL
- % R (resistance) (MR CoNS; Asia/Pac, Eucast breakpoints): 100%
- MIC90 (MR CoNS; Asia/Pac, N=77): > 64 µg/mL
- % R (resistance) (MR CoNS; Europe, Eucast breakpoints): 100%
- MIC90 (MR CoNS; Europe, N=510): > 64 µg/mL
- % R (resistance) (MR CoNS; L. Amer, CLSI breakpoints): 100%
- MIC90 (MR CoNS; L. Amer, N=301): > 64 µg/mL
- % R (resistance) (MR CoNS; N America, CLSI breakpoints): 100%
- MIC90 (MR CoNS; N America, N=461): 16 µg/mL
- % R (resistance) (E. faecalis VS; Asia/Pac, Eucast breakpoints): 0%
- MIC90 (E. faecalis VS; Asia/Pac, N=214): 8 µg/mL
- % R (resistance) (E. faecalis VS; Europe, Eucast breakpoints): 0%
- MIC90 (E. faecalis VS; Europe, N=669): 8 µg/mL
- % R (resistance) (E. faecalis VS; L. Amer, CLSI breakpoints): 0%
- MIC90 (E. faecalis VS; L. Amer, N=290): 8 µg/mL
- % R (resistance) (E. faecalis VS; N America, CLSI breakpoints): 0%
- MIC90 (E. faecalis VS; N America, N=863): 8 µg/mL
- range of MICs (N <10, shown instead of MIC90) (E. faecalis VNS; Asia/Pac, N=1): 8
- % R (resistance) (E. faecalis VNS; Europe, Eucast breakpoints): 0%
- range of MICs (N <10, shown instead of MIC90) (E. faecalis VNS; Europe, N=8): 4-16
- % R (resistance) (E. faecalis VNS; L. Amer, CLSI breakpoints): 0%
- range of MICs (N <10, shown instead of MIC90) (E. faecalis VNS; L. Amer, N=7): 4-8
- % R (resistance) (E. faecalis VNS; N America, CLSI breakpoints): 0%
- MIC90 (E. faecalis VNS; N America, N=38): 8 µg/mL
- MIC90 (E. faecium VS; Asia/Pac, N=106): > 64 µg/mL
- MIC90 (E. faecium VS; Europe, N=303): > 64 µg/mL
- MIC90 (E. faecium VS; L. Amer, N=51): > 64 µg/mL
- MIC90 (E. faecium VS; N America, N=115): > 64 µg/mL
- MIC90 (E. faecium VNS; Asia/Pac, N=24): > 64 µg/mL
- MIC90 (E. faecium VNS; Europe, N=71): > 64 µg/mL
- MIC90 (E. faecium VNS; L. Amer, N=41): > 64 µg/mL
- MIC90 (E. faecium VNS; N America, N=478): > 64 µg/mL

Reference: patent publication US10238670B2, “9-aminomethyl minocycline compounds and methods of use thereof in urinary tract infection (UTI) treatment” (Paratek Pharmaceuticals, Inc., priority 2016, dated 2019)
